We go through six compounds from patent US20040122013A1, “Analogs of nocicettin” (priority 2002, published 2004).

Experiment [1] has as its system mouse vas deferens. Description: Electrically induced twitch inhibition, mouse vas deferens (mVD).
Experiment [2] has as its system mice. Description: Mouse tail withdrawal assay (pronociception). The class given is in vivo.
Experiment [3] concerns mice. The class given is in vivo, mouse.
Experiment [4] relates to guinea pig ileum. Description: Electrically induced twitch inhibition, guinea pig ileum (gpI).
In experiment [5] the target is T1, human recombinant NOP receptor (Homo sapiens, UniProt P41146).
T1 construct: expressed in transfected cells; host or cells: Chinese hamster ovary (CHO) cells
T1 sequence (P41146 whole entry): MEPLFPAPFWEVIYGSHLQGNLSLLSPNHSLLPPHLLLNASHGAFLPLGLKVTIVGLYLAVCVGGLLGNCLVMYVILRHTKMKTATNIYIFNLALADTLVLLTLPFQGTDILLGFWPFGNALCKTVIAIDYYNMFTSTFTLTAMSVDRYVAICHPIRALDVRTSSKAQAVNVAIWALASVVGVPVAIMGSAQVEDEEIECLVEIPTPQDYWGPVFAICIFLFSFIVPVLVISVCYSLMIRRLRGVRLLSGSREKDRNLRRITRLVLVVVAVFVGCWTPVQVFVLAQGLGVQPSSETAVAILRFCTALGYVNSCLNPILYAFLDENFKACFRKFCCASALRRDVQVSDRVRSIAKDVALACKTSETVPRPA
The experiment is described as follows: biochemical. The note with it: CHOhNOP, stimulation of GTPγS binding. On the technique in general: GTPγS resists hydrolysis and so accumulates on activated G proteins.

Experiment [6] concerns N/OFQ-sensitive isolated tissues. The experiment is described as follows: N/OFQ-sensitive electrically stimulated isolated tissues (mouse and rat vas deferens, guinea pig ileum). From the text: The compounds of the Table have been evaluated in vitro in several N/OFQ-sensitive isolated tissues from various species such as the rat, mouse and guinea pig and in Chinese hamster ovary cells expressing the human recombinant NOP receptor (CHOhNop). The conditions adopted for studying the effects of the compounds in the electrically stimulated tissues (mouse and rat vas deferens, guinea pig ileum) are described in Bigoni et al. (Naunyn Schmiedebergs Arch Pharmacol 359, 160-7, 1999, herein incorporated by reference), whereas the conditions adopted for investigating the effects in CHOhNop cells are disclosed in Okawa et al. (Br J Pharmacol 127, 123-130, 1999, herein incorporated by reference).

In experiment [7] the target is T1, human recombinant NOP receptor. The experiment is described as follows: cell-based. As to conditions: CHOhNOP, cAMP inhibition.
For experiment [8], the target named is T2, recombinant human NOP receptors expressed in HEK293 cells (Homo sapiens, UniProt P41146).
T2 construct: host or cells: HEK293 cells
T2 sequence (P41146 whole entry): as above
As to conditions: Okada et al. 2000; cited from earlier work.

The test system of experiment [9] is NOP receptor. Description: Antagonism of agonist effects by naloxone and [Nphe1]N/OFQ(1-13)NH2. The note with it: tested vs the novel agonist compounds or vs N/OFQ. Here is the method:
In isolated tissues the compounds having structure [Phe^1Ψ(CO—NH)Gly^2] mimicked the effects of N/OFQ inducing similar maximal effects, thus acting as full agonists, while those with the structure [Phe^1Ψ(CH2—NH)Gly^2] behaved as partial agonists producing lower maximal effects than N/OFQ. […] Some of the compounds evaluated in vitro were also tested in a battery of in vivo assays of biological functions regulated by N/OFQ. In all the assays most of the analogs mimicked the effects evoked by the natural peptide. In the locomotor activity assay some compounds have been tested at 1 nmol i.c.v. dose. These mimicked the inhibitory effect of N/OFQ, however while the effects of the natural peptide lasted for about 20 min, those induced by some of the novel derivatives were still evident after several hours. […] Similar results were also obtained in the mouse tail withdrawal assay were the compounds mimicked the hyperalgesic actions of N/OFQ.

Setting [10] is: locomotor activity depression, i.c.v., mice.

Read-outs that look alike come from different tables or passages of the source.

By pEC50 is commonly meant the EC50 on a negative log10 scale, so that one unit is a factor of ten. Low values mean a large EC50, high ones a small EC50. As for `CC(C)C[C@H](NC(=O)[C@H](CCCCN)NC(=O)[C@H](CCCNC(=N)N)NC(=O)[C@H](C)NC(=O)[C@H](CO)NC(=O)[C@H](CCCCN)NC(=O)[C@H](CCCNC(=N)N)NC(=O)[C@H](C)NC(=O)CNC(=O)[C@@H](NC(=O)[C@H](Cc1ccccc1)NC(=O)CNC(=O)CNC(=O)[C@@H](N)Cc1ccccc1)[C@@H](C)O)C(=O)N[C@@H](C)C(=O)N[C@@H](CC(N)=O)C(=O)N[C@@H](CCC(N)=O)C(=O)O` [N/OFQ, reference compound], in [1], the Emax was found to be 91 ± 2% and the negative logarithm of the EC50 (pEC50) turned out to be 7.77. In experiment [2], this compound yielded a Duration of action of 15 min and an Effective dose of 1 nmol. Further, the Effective dose in experiment [3] (setting [10]) is 1 nmol. In [4], this compound gave an Emax of 56 ± 5% and a pEC50 of 8.04.
The term EC50 denotes the midpoint of the concentration-response curve. On to `C[C@H](NC(=O)CNC(=O)[C@@H](NC(=O)[C@H](Cc1ccc(F)cc1)NC(=O)CNC(=O)CNC(=O)[C@@H](N)Cc1ccccc1)[C@@H](C)O)C(=O)N[C@@H](CCCNC(=N)N)C(=O)N[C@@H](CCCCN)C(=O)N[C@@H](CO)C(=O)N[C@@H](C)C(=O)N[C@@H](CCCNC(=N)N)C(=O)N[C@@H](CCCCN)C(=O)N[C@@H](CCCNC(=N)N)C(=O)N[C@@H](CCCCN)C(=O)N[C@@H](CC(N)=O)C(=O)N[C@@H](CCC(N)=O)C(N)=O` [UFP-102], for which the half-maximal effective concentration (EC50) is 75.9 pM in [5] and 67.6 pM in experiment [7]. Also, the Emax in [5] amounted to 12.26 ± 1.37; in experiment [1], 94 ± 1%; in [4], 55 ± 4%; in experiment [7] it was 104 ± 3%. Besides, the pEC50 is 9.36 in experiment [1] and 8.98 in [4]. The Duration of action is >120 min in experiment [2] and >3 h in [3] (setting [10]). In addition, the Effective dose in [2] and in experiment [3] (setting [10]) was 0.1 nmol each time. In experiment [6], the “Intrinsic activity (full or partial agonist)” value is reported as “full agonist activity”. In addition, the “Potency compared with N/OFQ” value in [6] is recorded as “higher than that of N/OFQ”. For the same compound, the “Potency relative to N/OFQ” value in experiment [3] (mouse, in vivo) is recorded as “more than 10 fold”.
Consider “H-Phe-Ψ(CH2NH)-Gly-Gly-(pF)Phe-Thr-Gly-Ala-Arg-Lys-Ser-Ala-Arg-Lys-Arg-Lys-Asn-Gln-NH2 [b)]”, for which the “Intrinsic activity (full or partial agonist)” value in [6] (isolated tissues, maximal effect compared with N/OFQ) is listed as “partial agonist activity”.
Turning to [(pI)Phe^4]-N/OFQ-NH2, the “Potency compared with N/OFQ” value in [6] (isolated tissues) is “lower”.
As for [Arg^14,Lys^15]N/OFQ, the “Potency relative to N/OFQ” value in [8] is recorded as 17 fold.
For the compound [Nphe^1]N/OFQ(1-13)NH2, the pA2 in experiment [9] was 6.0-6.4.
